US20230372498A1, “PLK1 SELECTIVE DEGRADATION INDUCING COMPOUND” (UPPTHERA, priority 2020, published 2023)

Biological target: T1, PLK1 (Homo sapiens, UniProt P53350)
T1 construct: endogenous in cells; host or cells: HeLa
Assay: PLK1 protein degradation in HeLa cells, Western blotting (PLK1/GAPDH ratio)
Format: cell-based
Settings: 6 hours compound incubation; for DC50: measured only if the grade of Dmax is A or B; for Dmax: thymidine block and release, 10 points three-fold from 3 μM, PLK1 to GAPDH ratio, read-out: Dmax
Source text: The HeLa cell line was purchased from Korea Cell Line Bank (KCLB), Seoul, Korea. The passage in cell culture was maintained at P115 to P125.
For cell culture, DMEM (Gibco, Cat. No. 1195-65; Lot. No. 2085318), FBS (Gibco, Cat. No. 16000-044; Lot. No. 2097593), Penicillin/Streptomycin (PS) (Gibco, Cat. No. 15140-122; Lot. No. 2058855), 100 mm^2 cell culture dish (SPL, Cat. No. 20100), 150 mm^2 cell culture dish (SPL, Cat. No. 20150), 12-well culture plate (SPL, Cat. No. 30012), PBS pH 7.4 (Gibco, Cat. No. 10010-023; Lot. No. 2085080), TrypLE™ Express (Gibco, Cat. No. 12605-010; Lot No. 2070638), Counting Chamber (Hematocytometer) (Hirschmann, Cat. No. 8100204), and 0.4% Trypan Blue Solution (DYNEBIO, Cat. No. CBT3710; Lot. No. 20190723) were used.
2×10^5 cells were seeded for each well of a 12-well plate (SPL), and the cells were cultured in the culture medium in a total volume of 2 ml.
The compounds of Examples were completely dissolved in DMSO and used in the experiment, and thymidine was completely dissolved in DW and used in the experiment. For thymidine block, the products were treated with 2 mM of thymidine (Sigma-Aldrich Cat. No. T9250-5G) and then incubated for 24 hours.
For release and chemical treatment, the medium was suctioned and washed 3 times with 1×PBS. Complete media was added, followed by incubation for 4 hours in a CO2 incubator. Each compound was diluted three folds from the highest concentration of 3 μM to the lowest concentration in 10 points and then incubated for 6 hours again.
For SDS-PAGE and Western blotting, 1×RIPA lysis buffer (Rockland, Cat. No. MB-030-0050; Lot no. 39751), 100× Protease Inhibitor Cocktail (Quartett, Cat. No. PPI1015; Lot no. PCO50038424), Pierce™ BCA protein assay kit (ThermoScientific, Cat. No. 23225; Lot no. UC276876), albumin standard (ThermoScientific, Cat. No. 23209; Lot no. UB269561), 4-15% Mini-PROTEAN TGX stain-free gel (Bio-rad, Cat. No. 4568085; Lot no. L007041B), 10× Tris/Glycine/SDS buffer (Bio-rad, Cat. No. 1610732; Lot no. 10000044375B); 10×TBS (Bio-rad, Cat. No. 1706435; Lot no. 1000045140B), 10% Tween 20 (Cat. No. 1610781; Lot no. L004152B), Color protein standard broad range (NEB, Cat. No. P7719S; Lot no. 10040349), 4× Laemmli sample buffer (Bio-rad, Cat. No. 1610747; Lot no. L004133B), β-mercaptoethanol (Sigma-Aldrich, Cat. No. M3148; Lot no. 60-24-2), SuperBlock™ T20 (TBS) blocking buffer (ThermoScientific, Cat. No. 37536; Lot no. UC282578), 1M sodium azide solution (Sigma-Aldrich, Cat. No. 08591-1 mL-F; Lot no. BCBV4989), α-Rabbit pAb to Ms IgG (abcam, Cat. No. ab97046; Lot no. GR3252115-1), α-Goat pAb to Rb IgG (CST, Cat. No. 7074S; Lot no. 28), α-GAPDH (abcam, Cat. No. ab8245; Lot no. GR3275542-2), α-Plk1 (CST, Cat. No. 208G4), α-BRD4 (CST, Cat. No. 13440S), ECL™ Prime western blotting reagents (GE Healthcare, Cat. No. RPN2232; Lot no. 17001655), Ponceau S solution (Sigma-Aldrich, Cat. No. P7170; Lot no. SLBV4112), Difco™ Skim milk (BD, Cat. No. 232100; Lot no. 8346795), and iBlot® 2 NC Regular stacks (Invitrogen, Cat. No. IB323001; Lot no. 2NR110619-02) were used.
For cell harvesting, the cells were first separated from the plate using trypsin and then washed with the medium and PBS. Specifically, the medium was suctioned off and washed with 1 mL of PBS, and PBS was suctioned off. The cells were treated with 0.5 mL TrypLE™ Express at 37° C. for 7 minutes to separate the cells, and then 0.5 mL of complete medium was added to collect 1 mL of cell culture solution. Then, 1 mL of the cell collection solution was centrifuged at 8,000 rpm for 120 seconds, and the supernatant was removed. After washing with 0.2 mL of PBS, the PBS was removed.
For cell lysis, a lysis buffer was added and cell debris was removed to obtain a cell lysate. Specifically, the cells were treated with 70 μL of 1×RIPA buffer containing a protease inhibitor and incubated for 30 minutes on ice. Then, the cells were centrifuged at 4° C. and 15,000 rpm for 10 minutes to obtain a cell lysate. […]

T1 sequence (P53350 whole entry): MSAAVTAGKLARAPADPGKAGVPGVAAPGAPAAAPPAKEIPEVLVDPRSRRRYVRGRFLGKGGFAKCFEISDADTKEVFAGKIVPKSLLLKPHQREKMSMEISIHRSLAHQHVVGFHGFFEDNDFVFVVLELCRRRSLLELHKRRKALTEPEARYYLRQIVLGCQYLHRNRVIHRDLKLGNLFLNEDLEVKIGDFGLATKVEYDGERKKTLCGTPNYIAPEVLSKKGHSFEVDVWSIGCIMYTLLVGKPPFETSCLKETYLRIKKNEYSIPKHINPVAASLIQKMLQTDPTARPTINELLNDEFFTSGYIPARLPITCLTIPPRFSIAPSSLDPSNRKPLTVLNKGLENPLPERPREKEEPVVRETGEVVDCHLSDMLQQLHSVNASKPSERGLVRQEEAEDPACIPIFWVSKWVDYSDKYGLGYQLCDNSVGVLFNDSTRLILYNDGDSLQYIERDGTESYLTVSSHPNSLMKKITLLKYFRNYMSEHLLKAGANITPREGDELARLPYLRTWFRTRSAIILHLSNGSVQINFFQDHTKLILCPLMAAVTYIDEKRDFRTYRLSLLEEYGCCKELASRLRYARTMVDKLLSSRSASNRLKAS

DC50 [nM]	Dmax [%]	Compound
≤ 500	60 to 80	COc1cc(C(=O)NC2CCN(CCOCCCCCCCCOCCNc3cccc4c3C(=O)N(C3CCC(=O)NC3=O)C4=O)CC2)c(F)cc1Nc1ncc2c(n1)N(C1CCCC1)CC(F)(F)C(=O)N2C (stereo not drawn) [Compound 22, 4-((9-cyclopentyl-7,7-difluoro-5-methyl-6-oxo-6,7,8,9-tetrahydro-5H-pyrimido[4,5-b][1,4]diazepin-2-yl)amino)-N-(1-(2-((8-(2-((2-(2,6-dioxopiperidin-3-yl)-1,3-dioxoisoindolin-4-yl)amino)ethoxy)octyl)oxy)ethyl)piperidin-4-yl)-2-fluoro-5-methoxybenzamide]
≤ 50	≥ 80	COc1cc(C(=O)NC2CCN(CCCCOCCCOCCOCCNc3cccc4c3C(=O)N(C3CCC(=O)NC3=O)C4=O)CC2)c(F)cc1Nc1ncc2c(n1)N(C1CCCC1)CC(F)(F)C(=O)N2C (stereo not drawn) [Compound 23, 4-((9-cyclopentyl-7,7-difluoro-5-methyl-6-oxo-6,7,8,9-tetrahydro-5H-pyrimido[4,5-b][1,4]diazepin-2-yl)amino)-N-(1-(4-(3-(2-(2-((2-(2,6-dioxopiperidin-3-yl)-1,3-dioxoisoindolin-4-yl)amino)ethoxy)ethoxy)propoxy)butyl)piperidin-4-yl)-2-fluoro-5-methoxybenzamide]
≤ 50	≥ 80	COc1cc(C(=O)NC2CCN(CCCOCCCOCCCOCCNc3cccc4c3C(=O)N(C3CCC(=O)NC3=O)C4=O)CC2)c(F)cc1Nc1ncc2c(n1)N(C1CCCC1)CC(F)(F)C(=O)N2C (stereo not drawn) [Compound 24, 4-((9-cyclopentyl-7,7-difluoro-5-methyl-6-oxo-6,7,8,9-tetrahydro-5H-pyrimido[4,5-b][1,4]diazepin-2-yl)amino)-N-(1-(3-(3-(3-(2-((2-(2,6-dioxopiperidin-3-yl)-1,3-dioxoisoindolin-4-yl)amino)ethoxy)propoxy)propoxy)propyl)piperidin-4-yl)-2-fluoro-5-methoxybenzamide]
≤ 50	≥ 80	COc1cc(C(=O)NC2CCN(CCOCCCOCCOCCOCCNc3cccc4c3C(=O)N(C3CCC(=O)NC3=O)C4=O)CC2)c(F)cc1Nc1ncc2c(n1)N(C1CCCC1)CC(F)(F)C(=O)N2C (stereo not drawn) [Compound 25, 4-((9-cyclopentyl-7,7-difluoro-5-methyl-6-oxo-6,7,8,9-tetrahydro-5H-pyrimido[4,5-b][1,4]diazepin-2-yl)amino)-N-(1-(1-((2-(2,6-dioxopiperidin-3-yl)-1,3-dioxoisoindolin-4-yl)amino)-3,6,9,13-tetraoxapentadecan-15-yl)piperidin-4-yl)-2-fluoro-5-methoxybenzamide]
–	< 60	COc1cc(C(=O)NC2CCN(CCOCCOCC(=O)Nc3cccc4c3C(=O)N(C3CCC(=O)NC3=O)C4=O)CC2)c(F)cc1Nc1ncc2c(n1)N(C1CCCC1)CC(F)(F)C(=O)N2C (stereo not drawn) [Compound 26, 4-((9-cyclopentyl-7,7-difluoro-5-methyl-6-oxo-6,7,8,9-tetrahydro-5H-pyrimido[4,5-b][1,4]diazepin-2-yl)amino)-N-(1-(2-(2-(2-((2-(2,6-dioxopiperidin-3-yl)-1,3-dioxoisoindolin-4-yl)amino)-2-oxoethoxy)ethoxy)ethyl)piperidin-4-yl)-2-fluoro-5-methoxybenzamide]
≤ 500	60 to 80	COc1cc(C(=O)NC2CCN(CCOCCOCCOCCOCC(=O)Nc3cccc4c3C(=O)N(C3CCC(=O)NC3=O)C4=O)CC2)c(F)cc1Nc1ncc2c(n1)N(C1CCCC1)CC(F)(F)C(=O)N2C (stereo not drawn) [Compound 27, 14-(4-(4-((9-cyclopentyl-7,7-difluoro-5-methyl-6-oxo-6,7,8,9-tetrahydro-5H-pyrimido[4,5-b][1,4]diazepin-2-yl)amino)-2-fluoro-5-methoxybenzamido)piperidin-1-yl)-N-(2-(2,6-dioxopiperidin-3-yl)-1,3-dioxoisoindolin-4-yl)-3,6,9,12-tetraoxatetradecanamide]
≤ 500	60 to 80	COc1cc(C(=O)NC2CCN(CCOCCCCCCCCOCC(=O)Nc3cccc4c3C(=O)N(C3CCC(=O)NC3=O)C4=O)CC2)c(F)cc1Nc1ncc2c(n1)N(C1CCCC1)CC(F)(F)C(=O)N2C (stereo not drawn) [Compound 28, 4-((9-cyclopentyl-7,7-difluoro-5-methyl-6-oxo-6,7,8,9-tetrahydro-5H-pyrimido[4,5-b][1,4]diazepin-2-yl)amino)-N-(1-(2-((8-(2-((2-(2,6-dioxopiperidin-3-yl)-1,3-dioxoisoindolin-4-yl)amino)-2-oxoethoxy)octyl)oxy)ethyl)piperidin-4-yl)-2-fluoro-5-methoxybenzamide]
≤ 50	≥ 80	COc1cc(C(=O)NC2CCN(CCOCCNC(=O)CNc3cccc4c3C(=O)N(C3CCC(=O)NC3=O)C4=O)CC2)c(F)cc1Nc1ncc2c(n1)N(C1CCCC1)CC(F)(F)C(=O)N2C (stereo not drawn) [Compound 29, 4-((9-cyclopentyl-7,7-difluoro-5-methyl-6-oxo-6,7,8,9-tetrahydro-5H-pyrimido[4,5-b][1,4]diazepin-2-yl)amino)-N-(1-(2-(2-(2-((2-(2,6-dioxopiperidin-3-yl)-1,3-dioxoisoindolin-4-yl)amino)acetamido)ethoxy)ethyl)piperidin-4-yl)-2-fluoro-5-methoxybenzamide]
≤ 50	≥ 80	COc1cc(C(=O)NC2CCN(CCOCCOCCOCCNC(=O)CNc3cccc4c3C(=O)N(C3CCC(=O)NC3=O)C4=O)CC2)c(F)cc1Nc1ncc2c(n1)N(C1CCCC1)CC(F)(F)C(=O)N2C (stereo not drawn) [Compound 30, 4-((9-cyclopentyl-7,7-difluoro-5-methyl-6-oxo-6,7,8,9-tetrahydro-5H-pyrimido[4,5-b][1,4]diazepin-2-yl)amino)-N-(1-(1-((2-(2,6-dioxopiperidin-3-yl)-1,3-dioxoisoindolin-4-yl)amino)-2-oxo-6,9,12-trioxa-3-azatetradecan-14-yl)piperidin-4-yl)-2-fluoro-5-methoxybenzamide]
–	< 60	COc1cc(C(=O)NC2CCN(C(=O)COCCNc3cccc4c3C(=O)N(C3CCC(=O)NC3=O)C4=O)CC2)c(F)cc1Nc1ncc2c(n1)N(C1CCCC1)CC(F)(F)C(=O)N2C (stereo not drawn) [Compound 31, 4-((9-cyclopentyl-7,7-difluoro-5-methyl-6-oxo-6,7,8,9-tetrahydro-5H-pyrimido[4,5-b][1,4]diazepin-2-yl)amino)-N-(1-(2-(2-((2-(2,6-dioxopiperidin-3-yl)-1,3-dioxoisoindolin-4-yl)amino)ethoxy)acetyl)piperidin-4-yl)-2-fluoro-5-methoxybenzamide]
